The IC50 is the concentration needed to halve the response being measured.

Ten compounds from PubChem BioAssay AID1053129 (The Scripps Research Institute Molecular Screening Center, 2014) can be followed below.

Calls of active or inactive are those of the source. The rule behind the calls is not given here.

The target in this assay is Fibrinogen beta chain (Homo sapiens) (UniProt P02675). As to the kind of experiment: Tn6 displacement potency at DD(E) complex – biochemical, fluorescence polarization, human fibrin, dose response, late-stage follow-up (AID 1053129). The following applies: FP, Tn6 cyclic peptide binding to DD(E).
Chain of Fibrinogen beta chain (Homo sapiens) (P02675 whole entry, looked up): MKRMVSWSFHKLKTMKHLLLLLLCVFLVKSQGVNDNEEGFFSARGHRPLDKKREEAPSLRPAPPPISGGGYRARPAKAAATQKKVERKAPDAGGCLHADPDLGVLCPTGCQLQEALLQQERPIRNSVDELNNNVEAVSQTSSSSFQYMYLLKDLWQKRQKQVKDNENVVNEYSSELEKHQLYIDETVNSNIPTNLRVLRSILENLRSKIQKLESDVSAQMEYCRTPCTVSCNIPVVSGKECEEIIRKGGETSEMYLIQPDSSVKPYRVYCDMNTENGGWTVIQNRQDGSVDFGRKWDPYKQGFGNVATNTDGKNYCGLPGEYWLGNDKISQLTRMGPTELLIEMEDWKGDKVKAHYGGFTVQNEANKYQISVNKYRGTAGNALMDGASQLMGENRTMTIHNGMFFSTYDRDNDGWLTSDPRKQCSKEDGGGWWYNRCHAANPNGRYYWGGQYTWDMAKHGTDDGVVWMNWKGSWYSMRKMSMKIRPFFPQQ

As to `NS(=O)(=O)c1ccc(NS(=O)(=O)c2ccc(NC(=O)c3ccc(-c4ccccc4)cc3)cc2)cc1`, the IC50 is 3.43 µM.

As to `CN1C(=O)NC(c2ccccc2[N+](=O)[O-])C2=C1CCCC2=O` (stereo not given), the IC50 result is “inactive”.

With `O=C(O)CCCNc1cc(N2CCN(C(=O)c3ccco3)CC2)c2noc3c2c1C(=O)c1ccccc1-3`, the IC50 was 6.78 µM.

For the compound `N#CC1=C(N)Oc2ccc3ccc(O)cc3c2C1c1ccsc1` (stereo not given), the IC50 is 3.5 µM.

As to `Cc1cc(C)c(S(=O)(=O)NCCn2c(C)cc3ccccc32)c(C)c1`, the IC50 was > 83.3 µM (inactive).

Take `COc1ccc2ccccc2c1C(O)c1nccn1C` (stereo not given): the IC50 was > 83.3 µM (inactive).

In the case of `Cc1cc2cc(CNS(=O)(=O)c3ccc4ccccc4c3)ccc2n1C`, the IC50 was > 83.3 µM (inactive).

`Cc1cc2cc(CNC(=O)c3ccc(S(=O)(=O)N4CCOCC4)cc3)ccc2n1C`: the IC50 was > 83.3 µM (inactive).

For `Cc1cc2c(cc1S(=O)(=O)N1CCN(c3cccc(C)c3C)CC1)OCCN2C`, the IC50 is > 83.3 µM (inactive).

With `CCn1c(CSc2n[nH]c(N)n2)nc2cc(C(=O)O)ccc21`, the 50% inhibitory concentration (IC50) was 7.39 µM.
